In patent US20090023704A1, “Novel Compounds 737” (ASTRAZENECA AB, priority 2007, published 2009):
pEC50: −log10 of the molar value.

Target: T1, GABAB receptor (GABABR1a/GABABR2 heterodimer) (Homo sapiens, UniProt O75899+Q9UBS5)
T1 construct: expressed in transfected cells
Assay: [35S]-GTPγS binding assay, potency of PAM (GABA dose-response curves with and without test compound)
Type: biochemical
Conditions: potency of the positive allosteric modulator; GABA dose-response in presence of test compound
Description: GABABR1a and GABABR2 were cloned from human brain cDNA and subcloned into pCI-Neo (Promega) and pALTER-1 (Promega), respectively. A GABABR1a-Gαqi5 fusion protein expression vector was constructed using the pCI-Neo-GABABR1a cDNA plasmid and pLEC1-Gαqi5 (Molecular Devices, CA). In order to make the Gαqi5 pertussis toxin insensitive, Cys356 was mutated to Gly using standard PCR methodology with the primers 5′-[…]-3′ (forward) and 5′-GCGGCCG […]-3′ (reverse). The Gαqi5mut cDNA was ligated into the BamHI and NotI sites of pcDNA3.0 (Invitrogen). The GABAB R1a coding sequence was amplified by PCR from pCI-Neo-GABABR1a using the primers, 5′-[…]-3′ (forward) and 5′-[…]-3′ (reverse) and subcloned into the BamHI site of pcDNA3.0-Gαqi5mut.
For generation of a cell line expressing the GABABR1a/GABABR2 heterodimer, GABABR1a plasmid DNA (4 μg) GABABR2 plasmid DNA (4 μg) and lipofectamine (24 μl) were mixed in 5 ml OptiMEM and incubated for 45 minutes at room temperature. The cells were exposed to the transfection medium for 5 hours, which then was replaced with culture medium. The cells were cultured for an additional 10 days before selection agents (300 μg/ml hygromycin and 400 μg/ml geneticin) were added. Twenty-four days after transfection, single cell sorting into 96-well plates by flow cytometry was performed using a FACS Vantage SE (Becton Dickinson, Palo Alto, Calif.). After expansion, the GABAB receptor functional response was tested using the FLIPR assay described below. The clone with the highest functional response was collected, expanded and then subcloned by single cell sorting. The clonal cell line with the highest peak response in the FLIPR was used in the present study.
For generation of a stable cell line expressing GABABR1a-Gαqi5 fusion protein and GABABR2, GABABR1a-Gαqi5mut plasmid DNA (8 μg) GABABR2 plasmid DNA (8 μg) and lipofectamine (24 μl) were mixed in 5 ml OptiMEM and incubated for 45 minutes at room temperature. The cells were exposed to the transfection medium for 5 hours, which then was replaced with culture medium. After forty-eight hours, the cells were detached and seeded in 6 well plates (2000 cells/well) and grown in culture medium supplemented with geneticin (400 μg/ml) and zeocin (250 μg/ml). After 4 days, cells from single colonies were collected and transferred to a 24-well plate. After 10 days, the cell clones were seeded in T-25 flasks and grown for another 16 days before they were tested for GABAB receptor mediated functional response. […] The clonal cell line that gave the highest peak response in the FLIPR was used in the present study.
[^35S]-GTPγS binding assays were performed at 30° C. for 45 min in membrane buffer (100 mM NaCl, 5 mM MgCl2, 1 mM EDTA, 50 mM HEPES, pH 7.4) containing 0.025 μg/μl of membrane protein (prepared from the cell lines described above) with 0.01% bovine serum albumin (fatty acid free), 10 μM GDP, 10 μM DTT and 0.53 nM [^35S]-GTPγS (Amersham-Pharmacia Biotech) in a final volume of 200 μl. Non-specific binding was determined in the presence of 20 μM GTPγS. The reaction was started by the addition of GABA at concentration between 1 mM and 0.1 nM in the presence or absence of the required concentration of PAM. The reaction was terminated by addition of ice-cold wash buffer (50 mM Tris-HCl, 5 mM MgCl2, 50 mM NaCl, pH 7.4) followed by rapid filtration under vacuum through Printed Filtermat A glass fiber filters (Wallac) (0.05% PEI treated) using a Micro 96 Harvester (Skatron Instruments). The filters were dried for 30 min at 50° C., then a paraffin scintillant pad was melted onto the filters and the bound radioactivity was determined using a 1450 Microbeta Trilux (Wallac) scintillation counter.
GABA dose-response curves in the presence and absence of test compounds were constructed using the 4-parameter logistic equation, y=ymax+((ymin−ymax)/1+(x/C)^D), where C=EC50 and D=slope factor.

T1 sequence (Q9UBS5 15-961 limits assumed): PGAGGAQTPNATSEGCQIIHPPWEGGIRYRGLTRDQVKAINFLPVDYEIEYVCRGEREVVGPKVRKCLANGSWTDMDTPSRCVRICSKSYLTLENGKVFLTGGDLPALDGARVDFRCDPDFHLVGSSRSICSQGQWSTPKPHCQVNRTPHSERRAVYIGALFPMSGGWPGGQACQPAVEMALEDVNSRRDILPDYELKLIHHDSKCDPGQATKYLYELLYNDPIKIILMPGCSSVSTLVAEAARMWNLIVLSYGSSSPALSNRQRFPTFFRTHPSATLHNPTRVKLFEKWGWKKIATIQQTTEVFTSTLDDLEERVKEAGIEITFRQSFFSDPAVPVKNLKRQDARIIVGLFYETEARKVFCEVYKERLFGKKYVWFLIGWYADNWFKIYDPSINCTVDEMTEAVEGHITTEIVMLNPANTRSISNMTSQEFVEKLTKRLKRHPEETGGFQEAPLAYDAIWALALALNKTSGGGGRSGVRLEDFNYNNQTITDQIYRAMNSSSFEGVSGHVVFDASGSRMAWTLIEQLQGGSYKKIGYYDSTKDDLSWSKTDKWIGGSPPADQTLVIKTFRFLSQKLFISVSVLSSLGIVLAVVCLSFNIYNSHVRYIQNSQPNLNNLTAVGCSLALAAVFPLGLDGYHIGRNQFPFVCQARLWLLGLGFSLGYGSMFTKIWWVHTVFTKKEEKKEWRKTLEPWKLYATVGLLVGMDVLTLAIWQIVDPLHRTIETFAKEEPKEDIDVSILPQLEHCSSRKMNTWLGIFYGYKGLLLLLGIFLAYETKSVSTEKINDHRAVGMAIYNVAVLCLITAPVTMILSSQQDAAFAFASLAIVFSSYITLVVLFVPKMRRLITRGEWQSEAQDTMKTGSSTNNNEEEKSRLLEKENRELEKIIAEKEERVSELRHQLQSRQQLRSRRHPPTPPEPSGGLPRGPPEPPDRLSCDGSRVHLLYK
T1 sequence (O75899 42-941): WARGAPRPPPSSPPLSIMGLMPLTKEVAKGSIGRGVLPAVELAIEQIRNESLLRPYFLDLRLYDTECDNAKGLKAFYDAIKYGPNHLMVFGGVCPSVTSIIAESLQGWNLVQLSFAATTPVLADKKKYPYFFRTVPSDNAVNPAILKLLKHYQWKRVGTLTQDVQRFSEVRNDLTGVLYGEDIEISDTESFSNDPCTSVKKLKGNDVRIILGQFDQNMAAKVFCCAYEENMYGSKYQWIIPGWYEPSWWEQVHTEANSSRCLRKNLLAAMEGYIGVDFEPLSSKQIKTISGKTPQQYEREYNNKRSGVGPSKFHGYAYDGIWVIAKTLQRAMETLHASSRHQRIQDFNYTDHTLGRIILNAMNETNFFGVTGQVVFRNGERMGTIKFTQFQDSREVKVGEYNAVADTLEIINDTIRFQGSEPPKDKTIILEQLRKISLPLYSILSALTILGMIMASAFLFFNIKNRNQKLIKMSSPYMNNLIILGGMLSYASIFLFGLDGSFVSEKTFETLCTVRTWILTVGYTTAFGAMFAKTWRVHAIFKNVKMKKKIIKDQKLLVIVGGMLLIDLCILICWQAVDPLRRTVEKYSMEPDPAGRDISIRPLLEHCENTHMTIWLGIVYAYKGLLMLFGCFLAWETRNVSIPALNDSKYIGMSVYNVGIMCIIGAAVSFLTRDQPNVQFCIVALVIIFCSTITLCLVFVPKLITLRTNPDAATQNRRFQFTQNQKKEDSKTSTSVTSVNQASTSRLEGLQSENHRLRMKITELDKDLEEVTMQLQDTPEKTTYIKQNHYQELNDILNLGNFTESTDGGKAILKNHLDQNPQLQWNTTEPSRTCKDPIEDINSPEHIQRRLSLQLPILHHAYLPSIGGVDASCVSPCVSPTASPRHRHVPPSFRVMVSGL

Row | pEC50 | Compound
1 | 5.17 | CCc1nc2c(c(=O)n(Cc3ccc(Cl)cc3)c(=O)n2Cc2cc(C)on2)n1C [Example 16, 1-(4-Chlorobenzyl)-8-ethyl-7-methyl-3-[(5-methylisoxazol-3-yl)methyl]-3,7-dihydro-1H-purine-2,6-dione]
2 | 5.48 | CCc1nc2c(c(=O)n(Cc3ccc(Cl)cc3)c(=O)n2Cc2cccnc2)n1C [Example 18, 1-(4-Chlorobenzyl)-8-ethyl-7-methyl-3-(pyridin-3-ylmethyl)-3,7-dihydro-1H-purine-2,6-dione]
3 | 5.43 | CCc1nc2c(c(=O)n(Cc3ccc(Cl)cc3)c(=O)n2Cc2ccc(OC(F)F)cc2)n1C [Example 19, 1-(4-Chlorobenzyl)-3-[4-(difluoromethoxy)benzyl]-8-ethyl-7-methyl-3,7-dihydro-1H-purine-2,6-dione]
4 | 5.52 | CCc1nc2c(c(=O)n(Cc3ccc(Cl)cc3)c(=O)n2CC2CCCCC2)n1C [Example 20, 1-(4-Chlorobenzyl)-3-(cyclohexylmethyl)-8-ethyl-7-methyl-3,7-dihydro-1H-purine-2,6-dione]
5 | 5.60 | CCc1nc2c(c(=O)n(Cc3ccc(Cl)cc3)c(=O)n2Cc2ccc(S(C)(=O)=O)cc2)n1C [Example 22, 1-(4-chlorobenzyl)-8-ethyl-7-methyl-3-[4-(methylsulfonyl)benzyl]-3,7-dihydro-1H-purine-2,6-dione]
6 | 5.68 | CCc1nc2c(c(=O)n(Cc3ccc(Cl)cc3)c(=O)n2CC(O)C(F)(F)F)n1C (stereo not drawn) [Example 23, 1-(4-chlorobenzyl)-8-ethyl-7-methyl-3-(3,3,3-trifluoro-2-hydroxypropyl)-3,7-dihydro-1H-purine-2,6-dione]
7 | 5.29 | CCc1nc2c(c(=O)n(Cc3ccc(Cl)cc3)c(=O)n2CC2COc3ccccc3O2)n1C (stereo not drawn) [Example 24, 1-(4-chlorobenzyl)-3-(2,3-dihydro-1,4-benzodioxin-2-ylmethyl)-8-ethyl-7-methyl-3,7-dihydro-1H-purine-2,6-dione]
8 | 5.28 | CCc1nc2c(c(=O)n(Cc3ccc(Cl)cc3)c(=O)n2Cc2ccc(SC(F)(F)F)cc2)n1C [Example 25, 1-(4-chlorobenzyl)-8-ethyl-7-methyl-3-{4-[(trifluoromethyl)thio]benzyl}-3,7-dihydro-1H-purine-2,6-dione]
9 | 5.46 | CCc1nc2c(c(=O)n(Cc3ccc(Cl)cc3)c(=O)n2Cc2ccc(-n3cccn3)cc2)n1C [Example 26, 1-(4-chlorobenzyl)-8-ethyl-7-methyl-3-[4-(1H-pyrazol-1-yl)benzyl]-3,7-dihydro-1H-purine-2,6-dione]
10 | 4.81 | CCc1nc2c(c(=O)n(Cc3ccc(Cl)cc3)c(=O)n2CCN(CC)CC)n1C [Example 27, 1-(4-chlorobenzyl)-3-[2-(diethylamino)ethyl]-8-ethyl-7-methyl-3,7-dihydro-1H-purine-2,6-dione]
11 | 5.59 | CCc1nc2c(c(=O)n(Cc3ccc(Cl)cc3)c(=O)n2CC(=O)c2ccccc2)n1C [Example 28, 1-(4-chlorobenzyl)-8-ethyl-7-methyl-3-(2-oxo-2-phenylethyl)-3,7-dihydro-1H-purine-2,6-dione]
12 | 5.34 | CCc1nc2c(c(=O)n(Cc3ccc(Cl)cc3)c(=O)n2Cc2c(-c3ccccc3)noc2C)n1C [Example 30, 1-(4-chlorobenzyl)-8-ethyl-7-methyl-3-[(5-methyl-3-phenylisoxazol-4-yl)methyl]-3,7-dihydro-1H-purine-2,6-dione]

Continued, molecule first:

Row | Compound | pEC50
13 | CCc1nc2c(c(=O)n(Cc3ccc(Cl)cc3)c(=O)n2Cc2ccccc2)n1C [Example 1, 3-benzyl-1-(4-chlorobenzyl)-8-ethyl-7-methyl-3,7-dihydro-1H-purine-2,6-dione] | 5.20
14 | CCc1nc2c(c(=O)n(Cc3ccc(Cl)cc3)c(=O)n2CCC(C)(C)C)n1C [Example 2, 1-(4-Chlorobenzyl)-3-(3,3-dimethylbutyl)-8-ethyl-7-methyl-3,7-dihydro-1H-purine-2,6-dione] | 5.82
15 | CCc1nc2c(c(=O)n(Cc3ccc(Cl)cc3)c(=O)n2CC(=O)C(C)(C)C)n1C [Example 4, 1-(4-Chlorobenzyl)-3-(3,3-dimethyl-2-oxobutyl)-8-ethyl-7-methyl-3,7-dihydro-1H-purine-2,6-dione] | 5.80
16 | CCc1nc2c(c(=O)n(Cc3ccc(Cl)cc3)c(=O)n2C[C@H]2CCC(=O)N2)n1C [Example 6, 1-(4-Chlorobenzyl)-8-ethyl-7-methyl-3-{[(2R)-5-oxopyrrolidin-2-yl]methyl}-3,7-dihydro-1H-purine-2,6-dione] | 4.79
17 | CCc1nc2c(c(=O)n(Cc3ccc(Cl)cc3)c(=O)n2CC(=O)c2ccncc2)n1C [Example 7, 1-(4-Chlorobenzyl)-8-ethyl-7-methyl-3-(2-oxo-2-pyridin-4-ylethyl)-3,7-dihydro-1H-purine-2,6-dione] | 5.10
18 | CCc1nc2c(c(=O)n(Cc3ccc(Cl)cc3)c(=O)n2CC(C)C)n1C [Example 8, 1-(4-Chlorobenzyl)-8-ethyl-3-isobutyl-7-methyl-3,7-dihydro-1H-purine-2,6-dione] | 5.57
19 | CCc1nc2c(c(=O)n(Cc3ccc(Cl)cc3)c(=O)n2C[Si](C)(C)C)n1C [Example 9, 1-(4-Chlorobenzyl)-8-ethyl-7-methyl-3-[(trimethylsilyl)methyl]-3,7-dihydro-1H-purine-2,6-dione] | 5.68
20 | CCc1nc2c(c(=O)n(Cc3ccc(Cl)cc3)c(=O)n2C[C@@H]2CCC(=O)N2)n1C [Example 10, 1-(4-Chlorobenzyl)-8-ethyl-7-methyl-3-{[(2S)-5-oxopyrrolidin-2-yl]methyl}-3,7-dihydro-1H-purine-2,6-dione] | 4.84
21 | CCc1nc2c(c(=O)n(Cc3ccc(Cl)cc3)c(=O)n2CC(=O)OC)n1C [Example 11, Methyl [1-(4-chlorobenzyl)-8-ethyl-7-methyl-2,6-dioxo-1,2,6,7-tetrahydro-3H-purin-3-yl]acetate] | 5.07
22 | C=CCn1c(=O)n(Cc2ccc(Cl)cc2)c(=O)c2c1nc(CC)n2C [Example 12, 3-Allyl-1-(4-chlorobenzyl)-8-ethyl-7-methyl-3,7-dihydro-1H-purine-2,6-dione] | 5.22
23 | CCc1nc2c(c(=O)n(Cc3ccc(Cl)cc3)c(=O)n2Cc2ccc(Cl)cc2)n1C [Example 13, 1,3-Bis(4-chlorobenzyl)-8-ethyl-7-methyl-3,7-dihydro-1H-purine-2,6-dione] | 5.28
24 | CCc1nc2c(c(=O)n(Cc3ccc(Cl)cc3)c(=O)n2CC2OCCO2)n1C [Example 14, 1-(4-Chlorobenzyl)-3-(1,3-dioxolan-2-ylmethyl)-8-ethyl-7-methyl-3,7-dihydro-1H-purine-2,6-dione] | 4.91
25 | CCc1nc2c(c(=O)n(Cc3ccc(Cl)cc3)c(=O)n2Cc2ccccn2)n1C [Example 15, 1-(4-Chlorobenzyl)-8-ethyl-7-methyl-3-(pyridin-2-ylmethyl)-3,7-dihydro-1H-purine-2,6-dione] | 5.11
26 | CCc1nc2c(c(=O)n(Cc3ccc(Cl)cc3)c(=O)n2CCCOC(C)(C)C)n1C [Example 21, 3-(3-tert-butoxypropyl)-1-(4-chlorobenzyl)-8-ethyl-7-methyl-3,7-dihydro-1H-purine-2,6-dione] | 5.14
27 | CCc1nc2c(c(=O)n(Cc3ccc(Cl)cc3)c(=O)n2CCO[Si](C)(C)C(C)(C)C)n1C [Example 29, 3-(2-{[tert-butyl(dimethyl)silyl]oxy}ethyl)-1-(4-chlorobenzyl)-8-ethyl-7-methyl-3,7-dihydro-1H-purine-2,6-dione] | 5.07
